Consider seven compounds from PubChem BioAssay (NCI).

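All cell lines were grown in 96-well plates and treated with compound for 48 hours. GI50 = concentration required for 50% inhibition of growth. Definition used: TGI = concentration required for complete inhibition of growth.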

Some test systems named below: SF-539 CNS; PC-3 prostate; LOX IMVI melanoma; HOP-62 NSCLC; SK-MEL-28 melanoma; HOP-92 NSCLC; 786-0 renal; SK-MEL-5 melanoma; HL-60(TB) leukemia; RXF 393 renal.
Common to all, as to test: DTP human tumour cell line panel, 48 h

For the compound `COc1cc2nc3sc(C(=O)Nc4ccc(C(=O)OC(C)C)cc4)c(C(=O)Nc4ccc(Cl)cc4C)n3c(=O)c2cc1OC`, the GI50 (commonly the concentration that inhibits growth by half) in the experiment on SF-539 CNS was 23.2 µM; in the experiment with PC-3 prostate, 18.5 µM; in the experiment on LOX IMVI melanoma it was 11.1 µM; with HOP-62 NSCLC, 18.7 µM; with SK-MEL-28 melanoma, 46.2 µM; in the experiment on HOP-92 NSCLC it was 10.7 µM. Besides, the GI50 in the experiment on 786-0 renal is 5.17 µM; in the experiment on SK-MEL-5 melanoma, 6.08 µM; in the experiment on HL-60(TB) leukemia, 7.59 µM. The TGI (in general, the concentration at which net growth stops) in the experiment on SF-539 CNS is 80.8 µM; in the experiment on PC-3 prostate it was over 100 µM; in the experiment with LOX IMVI melanoma it was 34.4 µM; with HOP-62 NSCLC it was 52.2 µM; with SK-MEL-28 melanoma, over 100 µM; in the experiment on HOP-92 NSCLC, 30.6 µM. In addition, the TGI with 786-0 renal was 28 µM; in the experiment with SK-MEL-5 melanoma it was over 100 µM; in the experiment on HL-60(TB) leukemia, 35.2 µM.
Regarding `COc1ccc2c(c1)c(-c1ccc(-c3cn(S(=O)(=O)c4ccccc4)c4ccc(OC)cc34)s1)cn2S(=O)(=O)c1ccccc1`, the GI50 in the experiment with SF-539 CNS, with PC-3 prostate, in the experiment on LOX IMVI melanoma, with HOP-62 NSCLC, in the experiment on SK-MEL-28 melanoma and with HOP-92 NSCLC was over 100 µM each time. The GI50 with 786-0 renal, with SK-MEL-5 melanoma and in the experiment on HL-60(TB) leukemia was over 100 µM in each case. For the same compound, the TGI in the experiment on SF-539 CNS, in the experiment with PC-3 prostate, in the experiment with LOX IMVI melanoma, with HOP-62 NSCLC, in the experiment with SK-MEL-28 melanoma and with HOP-92 NSCLC was over 100 µM throughout. For the same compound, the TGI with 786-0 renal, in the experiment on SK-MEL-5 melanoma and in the experiment on HL-60(TB) leukemia was over 100 µM throughout.
In the case of `C=C1C(=O)O[C@@H]2C[C@@]3(C)CCC[C@H](C)C3=C[C@H]12`, the TGI came to 22.5 µM in the experiment on SF-539 CNS; 24.2 µM with PC-3 prostate; 22.9 µM with LOX IMVI melanoma; 18.8 µM with RXF 393 renal; 24.7 µM in the experiment with HOP-62 NSCLC; 20.5 µM in the experiment with SK-MEL-28 melanoma. For the same compound, the TGI with HOP-92 NSCLC was determined as 11.2 µM; in the experiment on 786-0 renal, 12.7 µM; in the experiment with SK-MEL-5 melanoma it was 17.9 µM; in the experiment on HL-60(TB) leukemia it was 5.52 µM.
Regarding `O=C1CC(c2ccc(N3CCOCC3)cc2)(c2ccsc2)NC(=O)C1Sc1ccccc1Cl` (stereo unspecified), the GI50 in the experiment with SF-539 CNS was 56.4 µM; in the experiment with PC-3 prostate, 53.1 µM; with LOX IMVI melanoma, 31.5 µM; in the experiment on RXF 393 renal, 5.65 µM; in the experiment with HOP-62 NSCLC it was 60.3 µM; in the experiment with SK-MEL-28 melanoma, 38.4 µM. Besides, the GI50 was 11.8 µM in the experiment on HOP-92 NSCLC, 6.53 µM with 786-0 renal, 36.6 µM in the experiment on SK-MEL-5 melanoma and over 100 µM in the experiment on HL-60(TB) leukemia. Further, the TGI in the experiment with SF-539 CNS, with PC-3 prostate, in the experiment on LOX IMVI melanoma, with RXF 393 renal, with HOP-62 NSCLC and in the experiment with SK-MEL-28 melanoma was over 100 µM throughout. Moreover, the TGI with HOP-92 NSCLC, in the experiment with 786-0 renal, with SK-MEL-5 melanoma and with HL-60(TB) leukemia was over 100 µM each time.
For `CC[C@@H](C(=O)[C@@H](C)[C@@H](O)[C@H](C)[C@@H]1O[C@@H]([C@@H](CC)C(=O)O)CC[C@@H]1C)C1O[C@]2(C=CC(=O)[C@]3(CC[C@@](C)([C@H]4CC[C@](O)(CC)[C@H](C)O4)O3)O2)[C@H](C)C[C@@H]1C` (stereo partly specified), the GI50 in the experiment with SF-539 CNS is 0.334 µM; with PC-3 prostate, 0.0665 µM; in the experiment on LOX IMVI melanoma, 0.71 µM; in the experiment on RXF 393 renal, 0.0416 µM; with HOP-62 NSCLC it was 0.334 µM; with SK-MEL-28 melanoma, 1.26 µM. Besides, the GI50 in the experiment with HOP-92 NSCLC was 1.33 µM; with 786-0 renal, 0.987 µM; in the experiment with SK-MEL-5 melanoma, 0.0658 µM; in the experiment on HL-60(TB) leukemia, 0.0399 µM. Further, the TGI in the experiment with SF-539 CNS is 10.4 µM; in the experiment on PC-3 prostate it was 15.5 µM; with LOX IMVI melanoma, 13.8 µM; with RXF 393 renal, 1.79 µM; in the experiment on HOP-62 NSCLC, 18.3 µM; in the experiment with SK-MEL-28 melanoma it was 2.53 µM. The TGI turned out to be 8.02 µM with HOP-92 NSCLC, 14.5 µM with 786-0 renal, 0.232 µM in the experiment on SK-MEL-5 melanoma and 0.332 µM with HL-60(TB) leukemia.
Turning to `CC(C)=CCC[C@H](C)[C@@H]1CC[C@]2(C)C3CC[C@]4(OC4(C)C)C(CCCO)[C@]3(C)CC[C@@]12C` (stereo partly specified), the GI50 was 23.6 µM in the experiment with SF-539 CNS; 18.2 µM with PC-3 prostate; 0.18 µM in the experiment on LOX IMVI melanoma; 18.3 µM in the experiment with RXF 393 renal; 20.8 µM with HOP-62 NSCLC; 23.9 µM with SK-MEL-28 melanoma. Further, the GI50 in the experiment on HOP-92 NSCLC was 14.5 µM; in the experiment on 786-0 renal it was 22.4 µM; in the experiment on SK-MEL-5 melanoma it was 22.7 µM; with HL-60(TB) leukemia, 20.7 µM. Also, the TGI with SF-539 CNS was found to be 50.1 µM; in the experiment on PC-3 prostate it was 41.1 µM; in the experiment on LOX IMVI melanoma, 16.5 µM; in the experiment with RXF 393 renal, 37.6 µM; in the experiment with HOP-62 NSCLC it was 44.4 µM; in the experiment on SK-MEL-28 melanoma, 58.5 µM. Also, the TGI in the experiment with HOP-92 NSCLC is 34.7 µM; in the experiment on 786-0 renal, 48.5 µM; with SK-MEL-5 melanoma it was 42.9 µM; in the experiment on HL-60(TB) leukemia, 45.3 µM.
In the case of `C1=Cc2ccccc2Nc2ccccc21`, the GI50 in the experiment on SF-539 CNS, with PC-3 prostate, in the experiment with LOX IMVI melanoma, in the experiment on RXF 393 renal, in the experiment with HOP-62 NSCLC and with SK-MEL-28 melanoma was over 100 µM each time. Besides, the GI50 with HOP-92 NSCLC is 86.1 µM; with 786-0 renal, over 100 µM; in the experiment with SK-MEL-5 melanoma, over 100 µM; with HL-60(TB) leukemia, over 100 µM. The TGI in the experiment on SF-539 CNS, with PC-3 prostate, in the experiment with LOX IMVI melanoma, with RXF 393 renal, in the experiment on HOP-62 NSCLC and in the experiment on SK-MEL-28 melanoma was over 100 µM in each case. Further, the TGI in the experiment with HOP-92 NSCLC, in the experiment on 786-0 renal, with SK-MEL-5 melanoma and with HL-60(TB) leukemia was over 100 µM throughout.
